Data: patent publication US12053459B2, “CDK2 inhibitors and methods of using the same” (Cedilla Therapeutics, Inc., priority 2021, dated 2024)

Tests used:
Kuramochi cells = assay: BrdU cell proliferation assay (colorimetric ELISA), Kuramochi cells; format: cell-based; conditions: class symbols A-D
How it was run: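 Kuramochi cells (2,000/well, with Kuramochi RB^KO cells as a specificity control) were treated with a 4-point, 3-fold dilution series made from 10 mM compound stocks and left for 4 days at 37 °C. Proliferation was measured by 1 h BrdU labelling, then anti-BrdU peroxidase ELISA read at 450 nm. Signals were background-subtracted and normalized to DMSO wells.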

CDK2/Cyclin E1(14-475) = CDK2/Cyclin E1(14-475) (Homo sapiens, UniProt P24941); assay: Caliper LabChip EZ Reader mobility shift assay, inhibition of CDK2/Cyclin E1 activity; format: biochemical; conditions: class symbols A-D
How it was run: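 CDK2/Cyclin E1(14-475) pre-incubated 30 min with compound and ATP, then reaction started with 5-FAM-QSPKKG-CONH2; final 2.5 nM enzyme, 100 μM ATP, 1.5 μM peptide, HEPES pH 7.5. Stopped with EDTA after 100 min; substrate/product conversion by capillary electrophoresis mobility shift, IC50 from four-parameter fit.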

SMILES | IC50 (Kuramochi cells) [µM] | IC50 (CDK2/Cyclin E1(14-475)) [µM]
COc1cc(C(=O)N2CC3CN(C(=O)Cc4c[nH]c5cc(Cl)ccc45)CC(C(=O)N[C@@H]4CCCN(Cc5ccccc5)C4)C3C2)ccc1OC(C)C (stereo partly drawn) [I-88, N—((R)-1-benzylpiperidin-3-yl)-5-(2-(6-chloro-1H-indol-3-yl)acetyl)-2-(4-isopropoxy-3-methoxybenzoyl)octahydro-1H-pyrrolo[3,4-c]pyridine-7-carboxamide] | > 10 | > 10
CNC(=O)[C@H](CCCc1ccccc1)NC(=O)C1CN(C(=O)Cc2c[nH]c3cc(Cl)ccc23)CC2CN(C(=O)c3ccc4[nH]ncc4c3)CC21 (some centres unmarked) [I-8] | > 10 | > 10
CNC(=O)[C@H](CCCc1ccccc1)NC(=O)C1CN(C(=O)Cc2c[nH]c3cc(Cl)ccc23)CC2CN(C(=O)c3ccc(OC(C)C)c(Cl)c3)CC21 (some centres unmarked) [I-24] | > 10 | > 10
CNC(=O)[C@H](CCCc1ccccc1)NC(=O)C1CN(C(=O)Cc2c[nH]c3cc(F)ccc23)CC2CN(C(=O)c3ccc(OC(C)C)c(OC)c3)CC21 (some centres unmarked) [I-174] | > 10 | 0.5 to 5
CNC(=O)[C@H](CCCc1ccccc1)NC(=O)C1CN(C(=O)Cc2c[nH]c3cc(Cl)ccc23)CC2CN(C(=O)c3c4ccccc4nn3C)CC21 (some centres unmarked) [I-48] | > 10 | > 10
CNC(=O)[C@H](CCCc1ccccc1)NC(=O)C1CN(C(=O)Cc2c[nH]c3cc(Cl)ccc23)CC2CN(C(=O)c3ccc(OC(F)(F)F)c(OC)c3)CC21 (some centres unmarked) [I-82] | 5 to 10 | 0.5 to 5
CNC(=O)[C@H](CCCc1ccccc1)NC(=O)C1CN(C(=O)Cc2c[nH]c3ccc(Br)cc23)CC2CN(C(=O)c3ccc(OC(C)C)c(OC)c3)CC21 (some centres unmarked) [I-237] | > 10 | ≤ 0.5
CNC(=O)[C@H](CCCc1ccccc1)NC(=O)C1CN(C(=O)c2ncc(Cl)cn2)CC2CN(C(=O)c3ccc(OC(C)C)c(OC)c3)CC21 (some centres unmarked) [I-196] | > 10 | > 10
COc1cc(C(=O)N2CC3CN(C(=O)Cc4c[nH]c5cc(Cl)ccc45)CC(C(=O)NC(CCCc4ccccc4)c4ncco4)C3C2)ccc1OC(C)C (centres unmarked) [I-149] | > 10 | 0.5 to 5
CNC(=O)[C@H](CCCc1ccccc1)NC(=O)C1CN(C(=O)Cc2c[nH]c3cc(C#N)ccc23)CC2CN(C(=O)c3ccc(OC(C)C)c(OC)c3)CC21 (some centres unmarked) [I-203] | > 10 | 0.5 to 5
CNC(=O)[C@@H](CCCC1CCOCC1)NC(=O)C1CN(C(=O)Cc2c[nH]c3cc(Cl)ccc23)CC2CN(C(=O)c3ccc(OC(C)C)c(OC)c3)CC21 (some centres unmarked) [I-131] | 0.5 to 5 | 5 to 10
COc1cc(C(=O)N2CC3CN(C(=O)Cc4c[nH]c5cc(Cl)ccc45)CC(C(=O)Nc4cncc(Cc5ccccc5)c4)C3C2)ccc1OC(C)C (centres unmarked) [I-238, N-(5-benzylpyridin-3-yl)-5-(2-(6-chloro-1H-indol-3-yl)acetyl)-2-(4-isopropoxy-3-methoxybenzoyl)octahydro-1H-pyrrolo[3,4-c]pyridine-7-carboxamide] | 0.5 to 5 | 0.5 to 5
CNC(=O)[C@H](CCCc1ccccc1)NC(=O)C1CN(C(=O)c2cncc(C)n2)CC2CN(C(=O)c3ccc(OC(C)C)c(OC)c3)CC21 (some centres unmarked) [I-211] | > 10 | > 10
CNC(=O)[C@H](CCCc1ccccc1)NC(=O)C1CN(C(=O)Cc2ccccc2)CC2CN(C(=O)c3ccc(OC(C)C)c(OC)c3)CC21 (stereo partly drawn) [I-154, 2-(4-isopropoxy-3-methoxybenzoyl)-N—((S)-1-(methylamino)-1-oxo-5-phenylpentan-2-yl)-5-(2-phenylacetyl)octahydro-1H-pyrrolo[3,4-c]pyridine-7-carboxamide] | > 10 | > 10
CNC(=O)[C@H](CCCc1ccccc1)NC(=O)C1CN(C(=O)Cc2c[nH]c3cc(Cl)ccc23)CC2CN(C(=O)c3ccc4c(c3)n(C)c(=O)n4C(C)C)CC21 (single isomer, unassigned) [I-87] | > 10 | ≤ 0.5
CNC(=O)[C@H](CCCc1ccccc1)NC(=O)C1CN(C(=O)CCCc2ccccn2)CC2CN(C(=O)c3ccc(OC(C)C)c(OC)c3)CC21 (some centres unmarked) [I-192] | > 10 | > 10
CNC(=O)[C@H](CCCc1ccc2[nH]nnc2c1)NC(=O)C1CN(C(=O)Cc2c[nH]c3cc(Cl)ccc23)CC2CN(C(=O)c3ccc(OC(C)C)c(OC)c3)CC21 (some centres unmarked) [I-143] | > 10 | > 10
CNC(=O)[C@H](CCCc1ccccc1)NC(=O)C1CN(C(=O)Cc2c[nH]c3cc(Cl)ccc23)CC2CN(C(=O)c3ccc(CC(C)C)cc3)CC21 (some centres unmarked) [I-52] | > 10 | 5 to 10
COC(=O)[C@@H](NC(=O)C1CN(C(=O)Cc2c[nH]c3cc(Cl)ccc23)CC2CN(C(=O)c3ccc(OC(C)C)c(OC)c3)CC21)[C@H](C)OCc1ccccc1 (stereo partly drawn) [I-255, methyl (2S,3S)-3-(benzyloxy)-2-(5-(2-(6-chloro-1H-indol-3-yl)acetyl)-2-(4-isopropoxy-3-methoxybenzoyl)octahydro-1H-pyrrolo[3,4-c]pyridine-7-carboxamido)butanoate] | 0.5 to 5 | ≤ 0.5
CNC(=O)[C@H](CCCc1ccccc1)NC(=O)C1CN(C(=O)Cc2c[nH]c3cc(Cl)ccc23)CC2CN(C(=O)c3cc4c(c(OC)c3)OC(C)(C)C4)CC21 (some centres unmarked) [I-83] | > 10 | ≤ 0.5

SMILES | IC50 (Kuramochi cells) [µM] | IC50 (CDK2/Cyclin E1(14-475)) [µM]
COc1cc(C(=O)N2CC3CN(C(=O)Cc4c[nH]c5cc(Cl)ccc45)CC(C(=O)N[C@@H](CCCc4cccc(O)c4)C(=O)NCCCCCN)C3C2)ccc1OC(C)C (single isomer, unassigned) [I-257] | > 10 | 0.5 to 5
CNC(=O)[C@H](CCCc1ccccc1)NC(=O)C1CN(C(=O)c2ccc(C)cn2)CC2CN(C(=O)c3ccc(OC(C)C)c(OC)c3)CC21 (some centres unmarked) [I-184] | > 10 | > 10
CNC(=O)[C@H](CCCc1ccccc1)NC(=O)C1CN(C(=O)c2oc(C)nc2C)CC2CN(C(=O)c3ccc(OC(C)C)c(OC)c3)CC21 (some centres unmarked) [I-188] | > 10 | > 10
CNC(=O)[C@H](CCCc1ccccc1)NC(=O)C1CN(C(=O)c2cccc3[nH]ccc23)CC2CN(C(=O)c3ccc(OC(C)C)c(OC)c3)CC21 (some centres unmarked) [I-180] | > 10 | > 10
CNC(=O)[C@H](CCCc1ccccc1)NC(=O)C1CN(C(=O)Cc2c[nH]c3cc(Cl)ccc23)CC2CN(C(=O)c3ccc(OCC(C)C)cc3)CC21 (some centres unmarked) [I-7] | 5 to 10 | 0.5 to 5
CNC(=O)[C@H](CCCc1ccccc1)NC(=O)C1CN(C(=O)c2ocnc2C)CC2CN(C(=O)c3ccc(OC(C)C)c(OC)c3)CC21 (some centres unmarked) [I-187] | > 10 | > 10
CNC(=O)[C@H](CCCc1ccccn1)NC(=O)C1CN(C(=O)Cc2c[nH]c3cc(Cl)ccc23)CC2CN(C(=O)c3ccc(OC(C)C)c(OC)c3)CC21 (some centres unmarked) [I-91] | > 10 | 0.5 to 5
CCOc1cnc(C(=O)N2CC3CN(C(=O)Cc4c[nH]c5cc(Cl)ccc45)CC(C(=O)N[C@@H](CCCc4ccccc4)C(=O)NC)C3C2)cn1 (some centres unmarked) [I-41] | > 10 | > 10
CNC(=O)[C@H](CCCc1ccccc1)NC(=O)C1CN(C(=O)c2c[nH]c3cc(C)ccc23)CC2CN(C(=O)c3ccc(OC(C)C)c(OC)c3)CC21 (some centres unmarked) [I-228] | > 10 | > 10
COc1cc(C(=O)N2CC3CN(C(=O)Cc4c[nH]c5cc(Cl)ccc45)CC(C(=O)N[C@@H](C)C(=O)NCCCc4ccccc4)C3C2)ccc1OC(C)C (some centres unmarked) [I-98] | > 10 | 0.5 to 5
CNC(=O)[C@H](CCCc1ccccc1)NC(=O)C1CN(C(=O)c2ncoc2C)CC2CN(C(=O)c3ccc(OC(C)C)c(OC)c3)CC21 (some centres unmarked) [I-193] | > 10 | > 10
CNC(=O)[C@H](CCCc1ccccc1)NC(=O)C1CN(C(=O)Cc2ccnc3ccccc23)CC2CN(C(=O)c3ccc(OC(C)C)c(OC)c3)CC21 (stereo partly drawn) [I-253, 2-(4-isopropoxy-3-methoxybenzoyl)-N—((S)-1-(methylamino)-1-oxo-5-phenylpentan-2-yl)-5-(2-(quinolin-4-yl)acetyl)octahydro-1H-pyrrolo[3,4-c]pyridine-7-carboxamide] | > 10 | > 10
CNC(=O)[C@H](CCCc1ccc(O)cc1)NC(=O)C1CN(C(=O)Cc2c[nH]c3cc(Cl)ccc23)CC2CN(C(=O)c3ccc(OC(C)C)c(OC)c3)CC21 (some centres unmarked) [I-115] | > 10 | 5 to 10
CNC(=O)[C@H](CCCc1ccccc1)NC(=O)C1CN(C(=O)Cc2c[nH]c3cc(Cl)ccc23)CC2CN(C(=O)c3ccc4c(c3)CC(=O)N4)CC21 (single isomer, unassigned) [I-23] | > 10 | > 10
CNC(=O)[C@H](CCCc1ccccc1)NC(=O)C1CN(C(=O)Cc2c[nH]c3cc(Cl)ccc23)CC2CN(C(=O)c3cnc4ccccc4c3)CC21 (some centres unmarked) [I-10] | > 10 | > 10
CNC(=O)[C@H](CCCc1ccccc1)NC(=O)C1CN(C(=O)Cc2c[nH]c3cnccc23)CC2CN(C(=O)c3ccc(OC(C)C)c(OC)c3)CC21 (some centres unmarked) [I-212] | > 10 | > 10
CNC(=O)[C@H](CCCc1ccccc1)NC(=O)C1CN(C(=O)c2[nH]ccc2C)CC2CN(C(=O)c3ccc(OC(C)C)c(OC)c3)CC21 (some centres unmarked) [I-171] | > 10 | > 10
CNC(=O)[C@H](CCCc1ccccc1)NC(=O)C1CN(C(=O)Cc2c[nH]c3cc(OC)ccc23)CC2CN(C(=O)c3ccc(Cl)c(Cl)c3)CC21 (stereo partly drawn) [I-247, 2-(3,4-dichlorobenzoyl)-5-(2-(6-methoxy-1H-indol-3-yl)acetyl)-N—((S)-1-(methylamino)-1-oxo-5-phenylpentan-2-yl)octahydro-1H-pyrrolo[3,4-c]pyridine-7-carboxamide] | > 10 | > 10
CNC(=O)[C@H](CCCc1ccccc1)NC(=O)C1CN(C(=O)Cc2c[nH]c3cc(Cl)ccc23)CC2CN(C(=O)c3cccc(CO)n3)CC21 (some centres unmarked) [I-20] | > 10 | > 10
COc1cc(C(=O)N2CC3CN(C(=O)Cc4c[nH]c5cc(Cl)ccc45)CC(C(=O)NCC(=O)NCCCc4ccccc4)C3C2)ccc1OC(C)C (centres unmarked) [I-99] | > 10 | 0.5 to 5
